One assay addresses T1, EED (1-441)-His protein (Homo sapiens, UniProt O75530).
T1 construct: 20 nM EED (1-441)-His protein
Briefly: EED-H3K27Me3 peptide competition binding assay by AlphaScreen. The conditions noted are these: IC50 class, Table 4B, read-out: Alpha screen. In short, it runs like this: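 Readout was AlphaScreen emission at 615 nm after 680 nm excitation, with 10 μg/ml final each of streptavidin donor and nickel chelate acceptor beads, 1 h at RT in the dark. Beforehand, compound met the His-tagged EED(1-441) for 15 min and then biotinylated H3K27Me3(19-33) peptide for 30 min; both were added as 20 nM solutions, buffer 25 mM HEPES pH 8, Tween-20, BSA. Percent activity left was fitted to give IC50.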
On the technique in general: Alpha assays give light when donor and acceptor beads are brought close together.
T1 sequence (O75530 whole entry): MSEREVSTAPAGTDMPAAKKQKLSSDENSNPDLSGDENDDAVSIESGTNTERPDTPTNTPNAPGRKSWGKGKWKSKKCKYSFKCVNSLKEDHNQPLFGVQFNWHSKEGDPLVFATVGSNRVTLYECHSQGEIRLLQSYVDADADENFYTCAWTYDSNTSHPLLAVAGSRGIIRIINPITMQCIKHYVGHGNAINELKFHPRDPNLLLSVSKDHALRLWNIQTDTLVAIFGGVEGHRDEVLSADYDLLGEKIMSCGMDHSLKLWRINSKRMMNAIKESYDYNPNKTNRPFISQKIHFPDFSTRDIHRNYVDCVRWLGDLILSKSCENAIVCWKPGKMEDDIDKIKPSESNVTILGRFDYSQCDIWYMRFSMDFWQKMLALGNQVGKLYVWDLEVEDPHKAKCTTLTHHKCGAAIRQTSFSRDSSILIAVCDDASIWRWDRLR
Take `Cc1cnc2n1Cc1ncccc1-c1cnc(NCc3c(F)ccc4c3CCO4)n3cnc-2c13` [E 17, N-((5-fluoro-2,3-dihydrobenzofuran-4-yl)methyl)-5-methyl-6H-2,3,5a,7,12,13a-hexaazabenzo[4,5] cyclopenta[7,8]cycloocta[1,2,3-cd]inden-13-amine]: the IC50 was less than 10 nM.
Consider `O=C1c2ncn3c(NCc4c(F)ccc5c4CCO5)ncc(c23)-c2ccc(C3COCCO3)nc2CN1CC(F)(F)F` (stereo not shown) [E 48, 7-(1,4-dioxan-2-yl)-12-(((5-fluoro-2,3-dihydrobenzo-furan-4-yl)methyl)amino)-4-(2,2,2-trifluoroethyl)-4,5-dihydro-3H-2,4,6, 11,12a-pentaazabenzo[4,5] cycloocta[1,2,3-cd]inden-3-one], for which the IC50 is less than 10 nM.
`Cc1cnc2n1Cc1cc(C(F)(F)F)ncc1-c1cnc(NCc3c(F)ccc4c3CCO4)n3cnc-2c13` [E 10, N-((5-fluoro-2,3-dihydrobenzofuran-4-yl)methyl)-5-methyl-8-(trifluoromethyl)-6H-2,3,5a,9,12,13a-hexaazabenzo[4,5]cyclopenta[7,8]cycloocta[1,2,3-cd]inden-13-amine]: the IC50 is less than 10 nM.
Same read-out and setting: the result for `Cc1ccc2c(n1)CN(CC(F)F)C(=O)c1ncn3c(NCc4c(F)ccc5c4CCO5)ncc-2c13` [E 6, 4-(2,2-difluoroethyl)-12-(((5-fluoro-2,3-dihydro-benzofuran-4-yl)methyl)amino)-7-methyl-4,5-dihydro-3H-2,4,6,11,12a-pentaazabenzo[4,5] cycloocta[1,2,3-cd]inden-3-one] reads less than 10 nM.

The same assay, now with this note: Table 4A, read-out: Alpha screen.
For the compound `O=C1c2ncn3c(NCc4c(F)ccc5c4CCO5)ncc(c23)-c2cnc(C(F)(F)F)cc2CN1CCF` [Compound 72, 12-(((5-fluoro-2,3-dihydrobenzofuran-4-yl)methyl)amino)-4-(2-fluoroethyl)-7-(trifluoromethyl)-4,5-dihydro-3H-2,4,8,11,12a-pentaazabenzo[4,5] cycloocta[1,2,3-cd]inden-3-one], the IC50 worked out at 2.69 nM.
Take `CN1Cc2ccc(C(F)(F)F)nc2-c2cnc(NCc3c(F)ccc4c3CCO4)n3cnc(c23)C1=O` [Compound 39, 12-(((5-fluoro-2,3-dihydrobenzofuran-4-yl)methyl)amino)-4-methyl-8-(trifluoromethyl)-4,5-dihydro-3H-2,4,9,11,12a-pentaazabenzo[4,5]cycloocta [1,2,3-cd]inden-3-one]: the IC50 amounted to 26.1 nM.
Take `O=C1OCc2ncccc2-c2cnc(NCc3c(F)ccc4c3CCO4)n3cnc1c23` [Compound 12, 12-(((5-fluoro-2,3-dihydrobenzofuran-4-yl)methyl)amino)-3H,5H-4-oxa-2,6,11,12a-tetraazabenzo[4,5]cycloocta[1,2,3-cd]inden-3-one]: the IC50 stood at 0.34 nM.
Regarding `CN1Cc2nc(C(F)(F)F)ccc2-c2cnc(NCc3c(F)ccc4c3CCO4)n3cnc(c23)C1=O` [Compound 33, 12-(((5-fluoro-2,3-dihydrobenzofuran-4-yl)methyl)amino)-4-methyl-7-(trifluoromethyl)-4,5-dihydro-3H-2,4,6,11,12a-pentaazabenzo[4,5]cycloocta [1,2,3-cd]inden-3-one], the IC50 turned out to be 1.06 nM.
As to `CS(=O)(=O)c1ccc2c(c1)NC(=O)c1ncn3c(NCc4c(F)ccc5c4CCO5)ncc-2c13` [Compound 5, 11-(((5-fluoro-2,3-dihydrobenzofuran-4-yl)methyl)amino)-6-(methylsulfonyl)-2,4,10,11a-tetraazadibenzo[cd,f]azulen-3(4H)-one], the IC50 came out at 0.26 nM.
Regarding `O=C1c2ncn3c(NCc4c(F)ccc5c4CCO5)ncc(c23)-c2cnc(C(F)(F)F)cc2CN1CC1CCOCC1` [Compound 45, 12-(((5-fluoro-2,3-dihydrobenzofuran-4-yl)methyl)amino)-4-((tetrahydro-2H-pyran-4-yl)methyl)-7-(trifluoromethyl)-4,5-dihydro-3H-2,4,8,11,12a-pentaazabenzo[4,5]cycloocta[1,2,3-cd]inden-3-one], the IC50 is 3.39 nM.

For the origin of these results see patent US20240316051A1, “A PHARMACEUTICAL COMBINATION AND USE THEREOF” (Ascentage Pharma (Suzhou) Co., Ltd., priority 2021, published 2024).
